Test results published in patent publication US20100016209A1, “Methods of Reducing Side Effects in Cancer Therapy” (priority 2005, published 2010).

Tests used:
[1] = system: patient with metastasized cancer of the "small saliva gland"
Experimental: (A) A patient of was a physician in the radiation department. They were diagnosed to have cancer of the “small saliva gland” in 1996. After radiation therapy, the tumor was removed by surgery. In 2001 it was discovered that the tumor had metastasized to their left lung and they went through a second surgery in the lung. In December of 2004, the metastasis extended into the chest, diaphragm and bone and multiple sites in the lung. They were treated with regional radiation and “immuno-therapy”. Starting in the middle of December, they were given MEK intravenously (IV) at a dose of 30 μg/kg bodyweight three times per week for one month. In the next month, they were given one administration of MEK each week at 40 μg/kg. Thereafter, one injection was done for each month at 120 μg/kg for the next 5 months.

[2] = system: white blood cells of kidney cancer patient; experiment: Clinical case (B): chemotherapy with a platinum compound and MEK, white blood cells analyzed by cell sorter; format: in vivo, human; settings: A person; for Total T (CD3+), Percent: kidney cancer, normal 59.4-84.6; for Total T (CD3+), Percent / T Helper (CD3+, CD4+), Cell Number/μl / T Suppressor (CD3+, CD8+), Cell Number/μl / Total B (CD19+), Cell Number/μl / Total NK (CD16+/CD56+), Cell Number/μl / Total T (CD3+), Cell Number/μl / Ratio T Helper Cells/ CD3, CD4/CD3, CD8 / Total NK (CD16+/CD56+), Percent / Total B (CD19+), Percent / T Suppressor (CD3+, CD8+), Percent / T Helper (CD3+, CD4+), Percent / Lymphocytes T + B + NK, Percent: platinum compound + MEK; for Ratio T Helper Cells/ CD3, CD4/CD3, CD8: normal 0.9-3.6; for Total NK (CD16+/CD56+), Percent: normal 5.6-40.9; for Total B (CD19+), Percent: normal 6.4-22.6; for T Suppressor (CD3+, CD8+), Percent: normal 11.1-38.3; for T Helper (CD3+, CD4+), Percent: normal 28.5-60.5; for Lymphocytes T + B + NK, Percent: normal 95.0-105.0
Experimental: (B) A patient was diagnosed with a kidney cancer and was treated with chemotherapy with a platinum compound and MEK for about two months (July and August 2005). […] a person's white blood cells after analyzed by the cell sorter are presented as follows: […]

patients' immune cells = experiment: Clinical (C): MEK therapy in a group of 19 cancer patients, analysis of patients' immune cells (FACS Calibur); format: in vivo, human; settings: for Total NK (CD16+CD56) Natural killer cells, Cells/μl / Total T Cells, Cells/μl / CD4/CD3(CD8) / Total NK (CD16+CD56) Natural killer cells, in percent of total / Total T Cells, in percent of total / Total Lymphocytes (T+B+NK), in percent of total: average of 19 patients; for Total NK (CD16+CD56) Natural killer cells, Cells/μl / Total T Cells, in percent of total: before MEK 61; for Total T Cells, Cells/μl: before MEK 367; for CD4/CD3(CD8): normal 0.9-3.6, before MEK 0.61; for Total NK (CD16+CD56) Natural killer cells, in percent of total: normal 5.6-30.9, before MEK 16; for Total T Cells, in percent of total: normal range 59.5-84.6; for Total Lymphocytes (T+B+NK), in percent of total: normal range 95.0-105.0, before MEK 87
Experimental: (C) Therapy in group of patients: (1) Total patient number: 19 (2) Cancer category: colon cancer—8; ovary cancer—5; lung cancer—4; salivary gland cancer—1; stomach cancer—1. 12 patients were given MEK 3 weeks after chemotherapy; the other 7 patients were not treated with chemotherapy. (3) Schedule of MEK administration: First week—10˜30 μg/kg, daily IV (total 7 administrations per week); Second week—20˜40 μg/kg, ever other day IV (total 3 administrations per week); Third week—30˜50 μg/kg, once every three days, IV (total 2 administrations per week). (4) Thereafter, one administration each month, 100˜130 μg/kg for 6 months. (5) Observation Indicator: analysis of patients' immune cells. (6) Equipment used: Cytometer—FACS Calibur; Software—Simul Set V3.1. (7) Results (in average values):
In the above data, “after MEK” refers to after the end of MEK treatment.

## Methionine enkephalin [MEK]
[1]; CT and MRI examination
  progress of the tumor: slowed and partially disappeared
[1]; after the therapy
  appetite and sleep: improved
  blood pressure, pulse and liver and stomach functions: normal
[1]; during the influenza epidemic, hospital ward
  influenza infection: not infected
[1]; during therapy with radiation, chemo, and MEK
  side effects in the GI, respiratory, skin, and peripheral circulation systems: no side effects
[1]; during therapy with radiation, chemo, and MEK, MEK IV 30-120 μg/kg
  white blood cell counts and lymphocytes: decreased to some extent
[1]; monitored monthly
  CD3/CD4 sub-group of T lymphocytes: increased
  CD3/CD8 and total CD3 subgroups: decreased
  total numbers of NK cells: increased
[2]; Aug 12
  Total T (CD3+), Percent: 74%
  T Helper (CD3+, CD4+), Cell Number/μl: 447 Cell Number/μl
  T Suppressor (CD3+, CD8+), Cell Number/μl: 931 Cell Number/μl
  Total B (CD19+), Cell Number/μl: 74 Cell Number/μl
  Total NK (CD16+/CD56+), Cell Number/μl: 447 Cell Number/μl
  Total T (CD3+), Cell Number/μl: 1368 Cell Number/μl
  Ratio T Helper Cells/ CD3, CD4/CD3, CD8: 0.48
  Total NK (CD16+/CD56+), Percent: 24%
  Total B (CD19+), Percent: 4%
  T Suppressor (CD3+, CD8+), Percent: 50%
  T Helper (CD3+, CD4+), Percent: 24%
  Lymphocytes T + B + NK, Percent: 102%
[2]; Jul 14
  Total T (CD3+), Percent: 70%
  T Helper (CD3+, CD4+), Cell Number/μl: 569 Cell Number/μl
  T Suppressor (CD3+, CD8+), Cell Number/μl: 1274 Cell Number/μl
  Total B (CD19+), Cell Number/μl: 54 Cell Number/μl
  Total NK (CD16+/CD56+), Cell Number/μl: 759 Cell Number/μl
  Total T (CD3+), Cell Number/μl: 1897 Cell Number/μl
  Ratio T Helper Cells/ CD3, CD4/CD3, CD8: 0.45
  Total NK (CD16+/CD56+), Percent: 28%
  Total B (CD19+), Percent: 2%
  T Suppressor (CD3+, CD8+), Percent: 47%
  T Helper (CD3+, CD4+), Percent: 21%
  Lymphocytes T + B + NK, Percent: 100%
[2]; platinum compound and MEK for about two months
  Numbers of T cell sub-types: did not decrease but increased instead
patients' immune cells; MEK as supplemental agent with chemo and/or radiation therapies
  side effects among the patients treated: helped to eliminate or reduce the extent of many side effects
patients' immune cells; 1 month after MEK
  Total NK (CD16+CD56) Natural killer cells, Cells/μl: 177 Cells/μl
  Total T Cells, Cells/μl: 655 Cells/μl
  CD4/CD3(CD8): 0
  Total NK (CD16+CD56) Natural killer cells, in percent of total: 22% of total
  Total T Cells, in percent of total: 60% of total
  Total Lymphocytes (T+B+NK), in percent of total: 102% of total
patients' immune cells; 2 months after MEK
  Total NK (CD16+CD56) Natural killer cells, Cells/μl: 189 Cells/μl
  Total T Cells, Cells/μl: 587 Cells/μl
  CD4/CD3(CD8): 1.62
  Total NK (CD16+CD56) Natural killer cells, in percent of total: 21% of total
  Total T Cells, in percent of total: 66% of total
  Total Lymphocytes (T+B+NK), in percent of total: 100% of total
patients' immune cells; 3 months after MEK
  Total NK (CD16+CD56) Natural killer cells, Cells/μl: 306 Cells/μl
  Total T Cells, Cells/μl: 539 Cells/μl
  CD4/CD3(CD8): 1.51
  Total NK (CD16+CD56) Natural killer cells, in percent of total: 29% of total
  Total T Cells, in percent of total: 67% of total
  Total Lymphocytes (T+B+NK), in percent of total: 104% of total
patients' immune cells; 4 months after MEK
  Total NK (CD16+CD56) Natural killer cells, Cells/μl: 349 Cells/μl
  Total T Cells, Cells/μl: 694 Cells/μl
  CD4/CD3(CD8): 1.53
  Total NK (CD16+CD56) Natural killer cells, in percent of total: 26% of total
  Total T Cells, in percent of total: 79% of total
  Total Lymphocytes (T+B+NK), in percent of total: 103% of total
patients' immune cells; 5 months after MEK
  Total NK (CD16+CD56) Natural killer cells, Cells/μl: 368 Cells/μl
  Total T Cells, Cells/μl: 637 Cells/μl
  CD4/CD3(CD8): 1.80
  Total NK (CD16+CD56) Natural killer cells, in percent of total: 25% of total
  Total T Cells, in percent of total: 73% of total
  Total Lymphocytes (T+B+NK), in percent of total: 102% of total
patients' immune cells; 6 months after MEK
  Total NK (CD16+CD56) Natural killer cells, Cells/μl: 359 Cells/μl
  Total T Cells, Cells/μl: 568 Cells/μl
  CD4/CD3(CD8): 1.61
  Total NK (CD16+CD56) Natural killer cells, in percent of total: 27% of total
  Total T Cells, in percent of total: 80% of total
  Total Lymphocytes (T+B+NK), in percent of total: 103% of total
patients' immune cells; cancer patients, MEK in conjunction with chemo and/or radiation therapies, after one month of MEK administration
  CD4/CD3(CD8), NK (CD16+CD56), and total T cells: either were maintained normally or increased
